Results taken from ChEMBL document CHEMBL5252562, “Synthesis, evaluation of anti-breast cancer activity in vitro of ICS II derivatives and summary of the structure-activity relationship” (Bioorg Med Chem, 2023).

What was measured:
MCF7 [1] = assay: Antitumor activity against human MCF7 cells assessed as cell viability incubated for 48 hrs by CCK8 assay; type: functional, cell-based; conditions: MCF7, 48 h
MCF7 [2] = assay: Antitumor activity against human MCF7 cells assessed as cell viability at 20 uM incubated for 48 hrs by CCK8 assay; type: functional; conditions: read-out: Activity
[3] = Cytotoxicity against African green monkey Vero cells; type: toxicity, cell-based; conditions: African green monkey (Chlorocebus sabaeus)
[4] = Selectivity index, ratio of IC50 for cytotoxicity against African green monkey Vero cells to IC50 for antitumor activity against human MCF7 cells; type: toxicity, cell-based; conditions: Vero cells and MCF7 cells, read-out: Ratio IC50
MCF7 [5] = assay: Potency index, ratio of Icariside-II IC50 to test compound IC50 for antitumor activity against human MCF7 cells; type: functional

IC50 (MCF7 [1]) [µM]	SMILES	viability at 20 µM (MCF7 [2]) [%]	IC50 [3] [µM]	selectivity ratio [4]	Ratio IC50 (MCF7 [5])
> 20	COc1ccc(-c2oc3c(CC=C(C)C)c(O)c(CN4CCNCC4)c(O)c3c(=O)c2O[C@@H]2O[C@@H](C)[C@H](O)[C@@H](O)[C@H]2O)cc1	–	–	–	–
> 20	C=C(C)COc1c(CN2CCC(C)CC2)c(O)c2c(=O)c(O[C@@H]3O[C@@H](C)[C@H](O)[C@@H](O)[C@H]3O)c(-c3ccc(OC)cc3)oc2c1CC=C(C)C	–	–	–	–
10.2	COc1ccc(-c2oc3c(CC=C(C)C)c(OCCCCCCCCCO)cc(O)c3c(=O)c2O[C@@H]2O[C@@H](C)[C@H](O)[C@@H](O)[C@H]2O)cc1	< 50	–	–	–
17.4	COc1ccc(-c2oc3c(CC=C(C)C)c(O)c(CN4CCC(C)CC4)c(O)c3c(=O)c2O[C@@H]2O[C@@H](C)[C@H](O)[C@@H](O)[C@H]2O)cc1	–	–	–	–
3.17	COc1ccc(-c2oc3c(CC=C(C)C)c(OCCCN4CCC(C)CC4)cc(O)c3c(=O)c2O[C@@H]2O[C@@H](C)[C@H](O)[C@@H](O)[C@H]2O)cc1	< 50	10.3	3.24	–
3.26	CCN(CC)CCCOc1cc(O)c2c(=O)c(O[C@@H]3O[C@@H](C)[C@H](O)[C@@H](O)[C@H]3O)c(-c3ccc(OC)cc3)oc2c1CC=C(C)C	< 50	6.19	1.89	–
3.09	COc1ccc(-c2oc3c(CC=C(C)C)c(OCCCN4CCCC4)cc(O)c3c(=O)c2O[C@@H]2O[C@@H](C)[C@H](O)[C@@H](O)[C@H]2O)cc1	< 50	6.15	1.99	–
6.28	COc1ccc(-c2oc3c(CC=C(C)C)c(OCC4OCCO4)cc(O)c3c(=O)c2O[C@@H]2O[C@@H](C)[C@H](O)[C@@H](O)[C@H]2O)cc1	< 50	–	–	–
> 20	COc1ccc(-c2oc3c(CC=C(C)C)c(OCc4ccc([N+](=O)[O-])cc4)cc(O)c3c(=O)c2O[C@@H]2O[C@@H](C)[C@H](O)[C@@H](O)[C@H]2O)cc1	–	–	–	–
10.2	COc1ccc(-c2oc3c(CC=C(C)C)c(OCCO)cc(O)c3c(=O)c2O[C@@H]2O[C@@H](C)[C@H](O)[C@@H](O)[C@H]2O)cc1	< 50	–	–	–
3.97	C=C(C)COc1cc(O)c2c(=O)c(O[C@@H]3O[C@@H](C)[C@H](O)[C@@H](O)[C@H]3O)c(-c3ccc(OC)cc3)oc2c1CC=C(C)C	< 50	8.18	2.06	–
> 20	COc1ccc(-c2oc3c(CC=C(C)C)c(O)c(CN4CCN(C)CC4)c(O)c3c(=O)c2O[C@@H]2O[C@@H](C)[C@H](O)[C@@H](O)[C@H]2O)cc1	–	–	–	–
> 20	COc1ccc(-c2oc3c(CC=C(C)C)c(O)c(CN4CCCCC4)c(O)c3c(=O)c2O[C@@H]2O[C@@H](C)[C@H](O)[C@@H](O)[C@H]2O)cc1	–	–	–	–
2.89	C=CCOc1cc(O)c2c(=O)c(O[C@@H]3O[C@@H](C)[C@H](O)[C@@H](O)[C@H]3O)c(-c3ccc(OC)cc3)oc2c1CC=C(C)C	< 50	5.88	2.03	–
1.54	COc1ccc(-c2oc3c(CC=C(C)C)c(OC(C)=O)cc(O)c3c(=O)c2O[C@@H]2O[C@@H](C)[C@H](OC(C)=O)[C@@H](OC(C)=O)[C@H]2OC(C)=O)cc1	< 50	3.88	2.51	–
2.79	C#CCOc1cc(O)c2c(=O)c(O[C@@H]3O[C@@H](C)[C@H](O)[C@@H](O)[C@H]3O)c(-c3ccc(OC)cc3)oc2c1CC=C(C)C	< 50	6.43	2.3	–
4.07	COc1ccc(-c2oc3c(CC=C(C)C)c(OCCCN4CCNCC4)cc(O)c3c(=O)c2O[C@@H]2O[C@@H](C)[C@H](O)[C@@H](O)[C@H]2O)cc1	< 50	> 20	> 5	–
7.52	COc1ccc(-c2oc3c(CC=C(C)C)c(O)cc(O)c3c(=O)c2O[C@@H]2O[C@@H](C)[C@H](O)[C@@H](O)[C@H]2O)cc1	–	9.34	1.24	–
> 20	COc1ccc(-c2oc3c(CC=C(C)C)c(O)c(CN(C(C)C)C(C)C)c(O)c3c(=O)c2O[C@@H]2O[C@@H](C)[C@H](O)[C@@H](O)[C@H]2O)cc1	–	–	–	–
6.24	C#CCOc1cc(OCC#C)c2c(=O)c(O[C@@H]3O[C@@H](C)[C@H](O)[C@@H](O)[C@H]3O)c(-c3ccc(OC)cc3)oc2c1CC=C(C)C	< 50	–	–	–
> 20	CCN(CC)Cc1c(O)c(CC=C(C)C)c2oc(-c3ccc(OC)cc3)c(O[C@@H]3O[C@@H](C)[C@H](O)[C@@H](O)[C@H]3O)c(=O)c2c1O	–	–	–	–
13.4	COc1ccc(-c2oc3c(CC=C(C)C)c(OCCCBr)cc(O)c3c(=O)c2O[C@@H]2O[C@@H](C)[C@H](O)[C@@H](O)[C@H]2O)cc1	< 50	–	–	–
2.17	COc1ccc(-c2oc3c(CC=C(C)C)c(OCC=C(C)C)cc(O)c3c(=O)c2O[C@@H]2O[C@@H](C)[C@H](O)[C@@H](O)[C@H]2O)cc1	< 50	6.74	2.85	–
8.25	CCOc1cc(O)c2c(=O)c(O[C@@H]3O[C@@H](C)[C@H](O)[C@@H](O)[C@H]3O)c(-c3ccc(OC)cc3)oc2c1CC=C(C)C	< 50	–	–	–
> 20	COc1ccc(-c2oc3c(CC=C(C)C)c(O)c(CN4CCCC4)c(O)c3c(=O)c2O[C@@H]2O[C@@H](C)[C@H](O)[C@@H](O)[C@H]2O)cc1	–	–	–	–
3.79	COc1ccc(-c2oc3c(CC=C(C)C)c(OCCCN4CCCCC4)cc(O)c3c(=O)c2O[C@@H]2O[C@@H](C)[C@H](O)[C@@H](O)[C@H]2O)cc1	< 50	15.5	4.08	–
0.7	COc1ccc(-c2oc3c(CC=C(C)C)c(OC(C)=O)cc(OC(C)=O)c3c(=O)c2O[C@@H]2O[C@@H](C)[C@H](OC(C)=O)[C@@H](OC(C)=O)[C@H]2OC(C)=O)cc1	< 50	3.13	4.47	5

SMILES	IC50 (MCF7 [1]) [µM]	viability at 20 µM (MCF7 [2]) [%]	IC50 [3] [µM]	selectivity ratio [4]	Ratio IC50 (MCF7 [5])
COc1ccc(-c2oc3c(CC=C(C)C)c(OC(=O)N(C)C)cc(O)c3c(=O)c2O[C@@H]2O[C@@H](C)[C@H](O)[C@@H](O)[C@H]2O)cc1	> 20	–	–	–	–
CC(=O)O[C@H]1C(=O)[C@@]2(C)[C@H]([C@H](OC(=O)c3ccccc3)[C@]3(O)C[C@H](OC(=O)[C@H](O)[C@@H](NC(=O)c4ccccc4)c4ccccc4)C(C)=C1C3(C)C)[C@]1(OC(C)=O)CO[C@@H]1C[C@@H]2O [PACLITAXEL]	0.48	–	–	–	–
